The source of these data is BindingDB's records for doi:10.1016/j.bmcl.2003.08.056 (Merck Research Laboratories, 2003).

SMILES strings stand for the structures.

As usually defined, the IC50 is the concentration that gives 50% inhibition. Higher therefore signals weaker potency in that assay.

The target in experiment [1] is T1, cGMP-inhibited 3',5'-cyclic phosphodiesterase 3A [388-1112] (Homo sapiens, UniProt Q14432).
T1 construct: 388-1112
Description: PDE SPA Enzyme Inhibition Assay. The protocol: (§1) PDE activity was monitored by measuring the hydrolysis of [3H]-cAMP to [3H]-AMP using scintillation proximity assay (SPA). [3H]-AMP was captured by the SPA beads, and quantified on a TopCount plate reader. Data was analyzed in Graph Pad Prism software.

Experiment [2] concerns the target T2, cGMP-inhibited 3',5'-cyclic phosphodiesterase 3B [387-1112] (Homo sapiens, UniProt Q13370).
T2 construct: 387-1112
Description: PDE SPA Enzyme Inhibition Assay. The procedure: as §1

T2 sequence (Q13370 387-1112): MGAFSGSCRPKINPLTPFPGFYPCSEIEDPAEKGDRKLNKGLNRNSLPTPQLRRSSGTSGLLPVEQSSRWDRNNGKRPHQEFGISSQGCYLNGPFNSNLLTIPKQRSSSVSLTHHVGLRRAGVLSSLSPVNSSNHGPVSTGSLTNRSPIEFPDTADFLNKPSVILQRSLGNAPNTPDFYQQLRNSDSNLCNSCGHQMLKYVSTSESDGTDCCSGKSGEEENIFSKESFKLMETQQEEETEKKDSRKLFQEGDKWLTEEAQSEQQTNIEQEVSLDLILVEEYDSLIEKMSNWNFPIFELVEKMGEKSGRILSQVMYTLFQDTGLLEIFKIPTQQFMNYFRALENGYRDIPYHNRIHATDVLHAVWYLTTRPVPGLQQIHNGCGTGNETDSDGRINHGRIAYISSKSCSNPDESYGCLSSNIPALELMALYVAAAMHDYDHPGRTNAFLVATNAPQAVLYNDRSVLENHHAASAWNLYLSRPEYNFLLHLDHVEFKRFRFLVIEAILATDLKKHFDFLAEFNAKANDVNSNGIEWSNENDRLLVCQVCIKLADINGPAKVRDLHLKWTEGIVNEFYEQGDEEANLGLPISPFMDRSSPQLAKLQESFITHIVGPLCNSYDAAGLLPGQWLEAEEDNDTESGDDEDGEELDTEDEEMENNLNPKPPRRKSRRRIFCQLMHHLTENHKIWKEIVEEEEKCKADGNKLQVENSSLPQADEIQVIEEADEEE
T1 sequence (Q14432 388-1112): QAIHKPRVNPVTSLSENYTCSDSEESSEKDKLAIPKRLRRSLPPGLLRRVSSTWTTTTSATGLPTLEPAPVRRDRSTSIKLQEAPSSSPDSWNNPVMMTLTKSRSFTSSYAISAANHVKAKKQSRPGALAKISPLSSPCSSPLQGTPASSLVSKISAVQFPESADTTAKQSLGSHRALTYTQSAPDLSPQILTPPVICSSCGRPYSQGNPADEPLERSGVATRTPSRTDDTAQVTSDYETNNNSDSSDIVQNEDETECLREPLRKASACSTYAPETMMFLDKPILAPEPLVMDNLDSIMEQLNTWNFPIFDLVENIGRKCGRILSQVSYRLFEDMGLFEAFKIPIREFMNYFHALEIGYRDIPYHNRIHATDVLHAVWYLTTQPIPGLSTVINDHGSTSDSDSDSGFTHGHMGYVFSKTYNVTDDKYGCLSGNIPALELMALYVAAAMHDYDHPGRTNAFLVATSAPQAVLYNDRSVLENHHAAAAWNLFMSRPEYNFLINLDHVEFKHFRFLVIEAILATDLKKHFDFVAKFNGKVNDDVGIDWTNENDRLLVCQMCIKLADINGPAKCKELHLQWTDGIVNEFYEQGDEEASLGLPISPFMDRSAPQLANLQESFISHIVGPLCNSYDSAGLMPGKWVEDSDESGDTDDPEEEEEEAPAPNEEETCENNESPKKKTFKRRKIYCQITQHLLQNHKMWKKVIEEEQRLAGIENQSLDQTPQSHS

With `Cc1cc(C2=NNC(=O)CC2C)ccc1NC1=C(Cc2ccccc2)C(=O)CCC1` (stereo not given) [6-{4-[(2-benzyl-3-oxocyclohex-1-en-1-yl)amino]-3-methylphenyl}-5-methyl-2,3,4,5-tetrahydropyridazin-3-one], the 50% inhibitory concentration (IC50) came to 3700 pM in experiment [1] and 610 pM in experiment [2].
Consider `C[C@@H]1CC(=O)NN=C1c1ccc(NC2=C(Cc3cccc(-c4ccsc4)c3)C(=O)CCC2)cc1` [(5R)-5-methyl-6-{4-[(3-oxo-2-{[3-(thiophen-3-yl)phenyl]methyl}cyclohex-1-en-1-yl)amino]phenyl}-2,3,4,5-tetrahydropyridazin-3-one], for which the IC50 is 110 pM in experiment [1] and 68 pM in experiment [2] (pH 7.5, 22 °C).
On the same counts, the results for `C[C@@H]1CC(=O)NN=C1c1ccc(NC2=C(Cc3cccc(-c4cccc([N+](=O)[O-])c4)c3)C(=O)CCC2)cc1` [(5R)-5-methyl-6-{4-[(2-{[3-(3-nitrophenyl)phenyl]methyl}-3-oxocyclohex-1-en-1-yl)amino]phenyl}-2,3,4,5-tetrahydropyridazin-3-one] are 110 pM and 49 pM.
Consider `CC1(C)C(=O)NN=C1c1ccc(NC2=C(Cc3cccc(C#N)c3)C(=O)CCC2)c(F)c1F` [3-[(2-{[4-(4,4-dimethyl-5-oxo-4,5-dihydro-1H-pyrazol-3-yl)-2,3-difluorophenyl]amino}-6-oxocyclohex-1-en-1-yl)methyl]benzonitrile], for which the IC50 worked out at 7600 pM in experiment [1] and 330 pM in experiment [2].
On the same counts, the results for `CC1CC(=O)NN=C1c1ccc(NC2=C(Cc3ccccc3)C(=O)CCC2)c(F)c1` (stereo not given) [6-{4-[(2-benzyl-3-oxocyclohex-1-en-1-yl)amino]-3-fluorophenyl}-5-methyl-2,3,4,5-tetrahydropyridazin-3-one] are 1200 pM and 260 pM.
